The source of these data is patent US20090215640A1, “METHODS FOR IDENTIFYING LIGANDS FOR STEM CELLS AND CELLS DERIVED THEREFROM” (priority 2005, published 2009).

In experiment [1] the test system is hESCs. The experiment can be described thus: Binding and internalization of mouse selected peptide phage into hESCs. Format: cell-based, human. Conditions: subpopulation of hESCs.
Experiment [2] concerns the target T1, CRIP2 (also known as heart LIM protein (Hlp)) (Mus musculus, UniProt Q9DCT8).
T1 sequence (Q9DCT8 1-208): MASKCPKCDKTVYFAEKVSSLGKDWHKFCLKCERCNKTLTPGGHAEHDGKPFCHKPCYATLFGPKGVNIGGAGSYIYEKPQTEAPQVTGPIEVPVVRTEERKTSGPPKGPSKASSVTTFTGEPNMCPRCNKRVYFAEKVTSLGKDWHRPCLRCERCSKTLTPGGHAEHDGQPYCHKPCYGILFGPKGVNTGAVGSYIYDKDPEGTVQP
The note with it: Zhang et al., Circulation 2005; cited from earlier work.

In experiment [3] the test system is adult heart capillaries and endocardium. The note with it: Zhang et al., Circulation 2005; cited from earlier work.

With CRPPR*, in experiment [1], the “Binding and internalization into hESCs” value is “binds and internalizes into a subpopulation of hESCs”. In addition, the “Binding to CRIP2” value in experiment [2] is given as “binds to CRIP2”. Moreover, in experiment [3], the “Binding to adult heart capillaries and endocardium” value is “known to bind to adult heart capillaries and endocardium”.
